Several values for one entry are separate records, joined by “and”; a condition that tells them apart may be missing. Identical values can stand only once.
Tested on: S. typhi GFP reporter counter-screen, fluorescence, 4 h
Experiment: S. typhi counter-screen signal inhibition – fluorescence, 4 h, counter-screen for PhoP regulon inhibitor project, dose response (AID 2384)

O=C(Cn1cnc2ccccc21)Nc1ccc(SC(F)F)cc1
IC50: 143 µM

O=C(Nc1ccc2nc(-c3ccc(Br)o3)[nH]c2c1)c1cccs1
IC50: 15 µM

CN(C)CCCN1c2ccccc2Sc2ccccc21
IC50: 40.1 µM

Cc1[nH]cnc1C(=O)N/N=C/c1ccc([N+](=O)[O-])s1
IC50: 37.2 µM

O=C(c1ccc([N+](=O)[O-])o1)N1CCOCC1
IC50: 81.8 µM

CCCCCCCCCCOC(=O)Cn1c(COc2ccc(OC)cc2)[n+](C)c2ccccc21
IC50: 12.1 µM and 10 µM

C[C@H]1c2cccc(O)c2C(O)=C2C(=O)[C@]3(O)C(O)=C(C(N)=O)C(=O)[C@@H](N(C)C)[C@@H]3[C@@H](O)[C@@H]21
IC50: 1.56 µM

CCOC(=O)N/N=C\c1ccc([N+](=O)[O-])o1
IC50: 31 µM

O=C(C[n+]1cccc(CNC(=O)c2ccc(OC(F)F)cc2)c1)Nc1ccc(SC(F)F)cc1
IC50: 78.6 µM

Nc1cc(=O)[nH]c(=S)n1-c1cccc(C(F)(F)F)c1
IC50: 145 µM

O=C(c1cccs1)c1no[n+]([O-])c1C(=O)c1cccs1
IC50: 39.8 µM

CCCCC(CC)CN=C(N)NC(N)=NCCCCCCN=C(N)NC(N)=NCC(CC)CCCC (centres undefined)
IC50: 4.65 µM

Cc1cccc(C(=O)NNC(=S)NC(=O)c2cccs2)c1
IC50: 66.3 µM

Cc1ccc(Nc2nc(N)c3ccccc3n2)cc1Cl
IC50: 36.3 µM

Cc1cc(OCC(O)CNC(C)c2ccccc2)ccc1C(C)C (centres undefined)
IC50: 38.3 µM

Cc1oc2c(O)c(O)ccc2c(=O)c1-c1ccccc1
IC50: 100 µM

c1ccc(N2CCN(c3nc4ccccc4[nH]3)CC2)nc1
IC50: 138 µM

Cc1ccc(C(=O)N/N=C\c2ccc([N+](=O)[O-])s2)cn1
IC50: 19.8 µM

Oc1cccc(C=NCc2ccccc2)c1O
IC50: 73.7 µM

CCn1cc(C(=O)O)c(=O)c2cc(F)c(N3CCN(C(=S)NC(=O)c4ccccc4C)CC3)cc21
IC50: 49.3 µM

Cc1ccc2c(c1)C1CN(C)CCC1N2Sc1ccccc1[N+](=O)[O-] (centres undefined)
IC50: 37.9 µM

NS(=O)(=O)c1ccc(CNc2ccc3ccccc3n2)cc1
IC50: 145 µM

O=[N+]([O-])c1cc(O)c2ncccc2c1
IC50: 15.9 µM

O=C(CCN1CCOCC1)c1ccc(Br)cc1
IC50: 72.5 µM

CCOc1cc(CNC(C)(C)CO)cc(Br)c1OCc1ccc(Cl)cc1Cl
IC50: 37.3 µM

OC1CCCN(Cc2ccc3ccc4cccc5ccc2c3c45)C1 (centres undefined)
IC50: 59.9 µM

COc1ccc(/C=N/Nc2cc(C)nc3ccc(Br)cc23)cc1
IC50: 36.4 µM

CC(NCc1ccccc1O)C12CC3CC(CC(C3)C1)C2 (centres undefined)
IC50: 33.9 µM

c1ccc(Nc2ccnc(Nc3ccccc3)n2)cc1
IC50: 38.9 µM

Cc1nc(N)nc(N)c1CCCc1ccc(Cl)c(Cl)c1
IC50: 31.5 µM

CCCOc1ccc(C(=O)NNC(=S)NC(=O)c2ccco2)cc1
IC50: 36.8 µM

COc1ccccc1NC(=O)CN1CCC(c2nc3ccc(C)cc3[nH]2)CC1
IC50: 143 µM

CCN(CC)c1ccc(CNc2nc3ccccc3n2C)cc1
IC50: 81.6 µM

CNCCC=C1c2ccccc2CCc2ccccc21
IC50: 117 µM

COc1cccc(CNCCc2c[nH]c3ccccc23)c1OCc1ccccc1
IC50: 89.1 µM

CN(C)CC/C=C1\c2ccccc2Sc2ccc(Cl)cc21
IC50: 60 µM

O=C1OCCN1/N=C/c1ccc([N+](=O)[O-])o1
IC50: 28.2 µM

Oc1ccc(C[C@@H]2CNCCN2CCCCC2CCCCC2)cc1
IC50: 37.5 µM

CCNC(=O)Oc1ccc[nH]c1=O
IC50: 53.8 µM

O=C(Nc1ccncc1)Nc1ccc(Cl)cc1
IC50: 85.2 µM

Cc1ccccc1Nc1cc(C)c2c(O)cccc2n1
IC50: 21.9 µM

Cc1ccc(OCc2nnc(NC(=O)c3cccnc3)s2)cc1
IC50: 52 µM

c1ccc(CCN2CN(CCCN3CCOCC3)c3nc4ccccc4n3C2)cc1
IC50: 128 µM

Clc1ccc(C(c2ccc(Cl)cc2)n2cc[n+](CC(OCc3ccc(Cl)cc3Cl)c3ccc(Cl)cc3Cl)c2)cc1 (centres undefined)
IC50: 9.7 µM

Nc1nnc(-c2cccc(Cl)c2Cl)c(N)n1
IC50: 25.8 µM

Cc1c(CCOC(=O)C2C3CC4CC(C3)CC2C4)sc[n+]1CC(=O)c1ccc(Br)cc1 (centres undefined)
IC50: 25.7 µM

CN1CCc2nc(SCC(=O)Nc3ccc(Cl)cc3)c(C#N)cc2C1
IC50: 93.5 µM

COc1c(N2CCN(C(=S)Nc3ccc(F)cc3)C(C)C2)c(F)cc2c(=O)c(C(=O)O)cn(C3CC3)c12 (centres undefined)
IC50: 18.3 µM

c1ccc2c(c1)CSc1sccc1C2=C1CCNCC1
IC50: 80.3 µM

Cc1cc(C)c2nc(C)cc(N/N=C/c3ccc(O)cc3)c2c1
IC50: 57.9 µM

Fc1ccc(Nc2nc(NCc3ccco3)c3ccccc3n2)cc1
IC50: 20.7 µM

CN1CCN(C2Cc3ccc(Cl)cc3Sc3ccc(F)cc32)CC1 (centres undefined)
IC50: 19.9 µM

COc1cc(C)c(Cc2cnc(N)nc2N)cc1OC
IC50: 5.98 µM

C#CCOCCOCCOCCNc1nc(N2CCN(C(=O)CCCCCCCCCCNC(=O)[C@@H](CCSC)n3cc(CCO)nn3)CC2)nc(N2CCN(C(=O)CCCCCCCCCCNC(=O)[C@H]([C@@H](C)CC)n3cc(CCCCN=C(N)N)nn3)CC2)n1
IC50: 83.1 µM

O=C(N/N=C/c1cc(O)ccc1Br)c1cccnc1
IC50: 69.4 µM

COC12C(COC(N)=O)C3=C(C(=O)C(C)=C(N)C3=O)N1CC1C2N1C (centres undefined)
IC50: 3.12 µM

C/C=C/c1ccc(OCc2cc(=O)n3cc(C)ccc3n2)c(OC)c1
IC50: 74.7 µM

Cc1nc(N)c(Cc2ccc(Cl)cc2Cl)c(N)n1
IC50: 30.4 µM

CCCCCCCCCCCCCCCC[N+](C)(C)CCN(Cc1ccc(OC)cc1)c1ncccn1
IC50: 19.1 µM

O=C(/C=C/c1ccco1)NC(=S)NNC(=O)c1ccco1
IC50: 90.8 µM

Cc1cc([N+](=O)[O-])nn1CC(=O)N/N=C/c1ccccc1O
IC50: 35.3 µM

CCn1cnc2cc(NCc3ccc(Br)cc3)ccc21
IC50: 138 µM

Clc1ccc(CN2CCc3c([nH]c4ccccc34)C2)cc1Cl
IC50: 36.2 µM

CCOc1cc(Br)cc(/C=N/NC(=O)c2cccnc2)c1O
IC50: 126 µM

CCn1cc(C(=O)NCC(C)C)c(=O)c2cc(F)c(N3CCN(C)CC3)cc21
IC50: 64.4 µM

CCCCCNc1nc(N2CCCC2)c2c(c1C#N)CCN(C)C2
IC50: 36.3 µM

N=c1n(CCN2CCCCC2)c2ccccc2n1CC(O)c1ccc(Cl)c(Cl)c1 (centres undefined)
IC50: 19.8 µM

O=S1(=O)Nc2c(ccc3cccnc23)-c2ccccc21
IC50: 3.32 µM

O=C(CSC1=NC(=O)C(c2ccccc2)C(=O)N1)Nc1cccc(Cl)c1 (centres undefined)
IC50: 80.2 µM

CN1C(=O)NC(c2cccc(O)c2)C(C(=O)c2cccs2)C1(O)C(F)(F)F (centres undefined)
IC50: 24.6 µM

CCCCCCCCCCCCCCCC[n+]1cccc(C(=O)N(CC)CC)c1
IC50: 18.3 µM

CCOc1cc(CNCCCN2CCOCC2)cc(Br)c1OCC(=O)Nc1cccc(C(F)(F)F)c1
IC50: 47.1 µM

O=C(C[n+]1cc(-c2ccc(Cl)c(Cl)c2)n2c1CCC2)N1c2ccccc2Sc2ccccc21
IC50: 19.4 µM

c1ccc(CN2CCC(Nc3nc(-c4ccccc4)nc4ccccc34)CC2)cc1
IC50: 38 µM

CC(C(=O)NC1CCS(=O)(=O)C1)N1C(=O)/C(=C/c2ccc(Cl)cc2)SC1=S (centres undefined)
IC50: 18.2 µM

c1ccc2c(NCCc3c[nH]c4ccccc34)c3ccccc3nc2c1
IC50: 36.9 µM

O=C(Cn1cc[n+](CC(=O)c2ccc(Cl)cc2Cl)c1)c1ccc(Cl)cc1Cl
IC50: 27.6 µM

NC1=NC[C@H](Cc2ccc(O)cc2)N1CCc1cccc2ccccc12
IC50: 36.5 µM

S=C(Nc1ccc(Cl)c(Cl)c1)NC1CCN(Cc2ccccc2)CC1
IC50: 37.8 µM

COc1cccc(/C=N/NC(=O)c2ccoc2C)c1O
IC50: 139 µM

NC(=NCCCCCCN=C(N)/N=C(\N)Nc1ccc(Cl)cc1)/N=C(\N)Nc1ccc(Cl)cc1
IC50: 5.2 µM and 5.4 µM and 5.13 µM

CO[C@@]1(NC(=O)C2SC(=C(C(N)=O)C(=O)O)S2)C(=O)N2C(C(=O)O)=C(CSc3nnnn3C)CS[C@@H]21 (some centres undefined)
IC50: 10.3 µM

CCn1cc(C(=O)O)c(=O)c2cc(F)c(N3CCNCC3)cc21
IC50: 0.49 µM

CC[C@H]1OC(=O)[C@H](C)[C@@H](O[C@H]2C[C@@](C)(OC)[C@@H](O)[C@H](C)O2)[C@H](C)[C@@H](O[C@@H]2O[C@H](C)C[C@H](N(C)C)[C@H]2O)[C@](C)(O)C[C@@H](C)[C@@H]2N[C@@H](COCCOC)O[C@H]([C@H]2C)[C@]1(C)O
IC50: 5.52 µM

CN(C)CCCN1c2ccccc2Sc2ccc(C(F)(F)F)cc21
IC50: 103 µM

CCOC(=O)c1c(-c2ccc(-c3ccccc3)cc2)csc1NC(=O)CNCCN(C)C
IC50: 82.7 µM

Nc1cccc2nc3ccccc3cc12
IC50: 68.7 µM

O=C(Nc1cccc(C2=NCCN2)c1)Nc1cccc(C2=NCCN2)c1
IC50: 44.8 µM

Nc1nc(Nc2cccc(F)c2)nc2ccccc12
IC50: 22.5 µM

O=C(Cc1ccccc1)NNC(=S)NC(=O)c1cccs1
IC50: 32.3 µM

O=c1[nH]c(-c2ccccn2)nc(C(F)(F)F)c1Br
IC50: 51.3 µM

O=C(CCN1CCN(c2ccccc2F)CC1)c1ccc(Br)cc1
IC50: 37.2 µM

C[C@H]1c2cccc(O)c2C(O)=C2C(=O)C3(O)C(O)=C(C(N)=O)C(=O)[C@@H](N(C)C)[C@@H]3[C@@H](O)[C@@H]21 (some centres undefined)
IC50: 0.82 µM

c1ccc(Nc2nc(NCc3ccco3)c3ccccc3n2)cc1
IC50: 21.5 µM

CC(C)[C@@H]1CC[C@@H](C)C[C@H]1OC(=O)C[n+]1cc(-c2ccc(Cl)cc2)n2c1CCCCC2
IC50: 74.9 µM

Oc1ccc(CN2CCN(c3ccccc3)CC2)c2cccnc12
IC50: 99.6 µM

N#C/C(N=Nc1ccccc1O)=N\Nc1ccccc1O
IC50: 20.2 µM

COc1cccc2c(=O)c(C(=O)O)c[nH]c12
IC50: 113 µM

Cc1ccc(S(=O)(=O)CCC(=O)c2ccc(O)cc2O)cc1
IC50: 57.5 µM

CCn1cc(C(=O)O)c(=O)c2cc(F)c(N3CCN(C(=S)NC(=O)c4cccc(C)c4)CC3)cc21
IC50: 37.8 µM

C=CCc1cc(Cl)ccc1OCCCNCCO
IC50: 94.2 µM

CN(C)CCOCCOc1ccc(Cl)c2ccccc12
IC50: 41.1 µM

CCn1cc(C(=O)O)c(=O)c2cc(F)c(N3CCN(C(=S)NC(=O)c4cccc(F)c4)CC3)cc21
IC50: 94.6 µM

O=C(CNCCC1=CCCCC1)Nc1ccc(N2CCCCCC2)cc1
IC50: 24.7 µM

O=C1NCCN1c1ncc([N+](=O)[O-])s1
IC50: 28.2 µM

CCOC(=O)N1CCN(CCC(=O)c2ccc(Cl)cc2)CC1
IC50: 66.6 µM

CCCCCN=C(N)N/N=C/c1c[nH]c2ccc(OC)cc12
IC50: 26.9 µM

Cc1ccc2c(c1)sc(-c1ccc(N(C)C)cc1)[n+]2C
IC50: 35.3 µM

Cc1ccc(-c2csc(NC(=O)C[n+]3cc(-c4ccccc4)n4c3CCC4)n2)cc1
IC50: 19.3 µM

Clc1cccc(/C=N\Nc2nccs2)c1
IC50: 15.8 µM

Cc1ccccc1C(=O)N/N=C/c1ccc([N+](=O)[O-])s1
IC50: 75.3 µM

CN(C)CCOC(=O)c1sc2ccccc2c1Cl
IC50: 125 µM

OC(CNCc1ccco1)Cn1c2ccc(Br)cc2c2cc(Br)ccc21 (centres undefined)
IC50: 18.9 µM

O=[N+]([O-])/C=C/c1cc2ccccc2[nH]1
IC50: 36.9 µM
